From patent US8748108B2, “Biomarkers for identifying patient classes” (AbbVie Inc., priority 2006, dated 2014)
Entries after “also recorded” stand apart in the source; their conditions may differ.

How the values were obtained:
[1] = tested on: relapsed or refractory SCLC and other solid tumors; assay: phase I dose-escalation study, tumor response (RECIST); format: in vivo, human
Description: (§1) This example illustrates a phase I dose-escalation study to evaluate the safety, pharmacokinetics, and preliminary efficacy of navitoclax in subjects with relapsed or refractory SCLC and other solid tumors. This phase I study of navitoclax, a novel inhibitor of Bcl-2 family proteins, was designed to evaluate safety, pharmacokinetics, and preliminary efficacy in subjects with small cell lung cancer (SCLC) or other solid tumors.
(§2) Subjects enrolled to intermittent dosing cohorts received navitoclax on Days 1-14 followed by 7 days off. Subjects on continuous dosing cohorts received a one week lead-in dose of 150 mg followed by continuous daily administration of navitoclax. Blood samples were collected for pharmacokinetic analyses, biomarker analyses, and platelet monitoring.
Subjects included histologically documented SCLC or other non-hematologic malignancies, age ≧18, Eastern Cooperative Oncology Group performance status (ECOG PS) of ≦2, measurable disease by Response Evaluation Criteria in Solid Tumors (RECIST 1.0), and had received at least one prior chemotherapy treatment with documented progression. Subjects with brain metastases were included if they had surgery and/or radiation therapy followed by 21 days of stable neurologic function and stable disease by imaging prior to the first dose of study drug. Additional inclusion criteria included adequate bone marrow, renal and hepatic function per local laboratory reference range, non-pregnant status, and a life expectancy of ≧90 days.
(§3) Subjects were evaluated with history, physical exam, vital signs, complete blood count, chemistries, urinalysis and ECOG PS weekly through C2 and on D1 of each subsequent cycle. ECG and 2D-ECHO were obtained on C1D-3, C1D14, C3D1, C3D14, and end of study. Platelet counts were obtained on D-3 through 14 of C1, and weekly through each subsequent cycle. Lymphocyte enumeration was performed at screening, C1D14, at the end of C4, and at the end of every 3rd cycle thereafter. Radiographic tumor assessments were performed at baseline, after the 2nd and 4th cycles and after every 3 cycles thereafter.

[2] = phase I dose-escalation study, safety; format: in vivo, human
Description: as §1, §2
as §3, with “cycles thereafter. […]” for “cycles thereafter.”

[3] = phase I study, pharmacokinetics; format: in vivo; conditions: human, plasma; phase 1, patients, oral
pro-GRP = assay: phase I study, plasma pro-GRP (ARCHITECT ELISA); format: in vivo, human; conditions: with increasing dose
Protocol: Blood samples for circulating tumor cells (CTCs) were collected at screening, C1D14, C2D14, and at the end of study treatment. Samples for the plasma marker Pro-GRP were collected at screening, C1D14, C2D14, and at the end of study. Samples for serum marker M30 were collected at screening, pre-dose, 6 and 24 hours post-dose on C1D-3 (for 14/21 day dosing) or lead-in day 2 for 21/21 day dosing). Samples were also collected on C1D14; pre-dose and 6 hours post-dose on C2D1; C2D14; end of cycle 4; and every 3rd cycle thereafter and at the final visit for all subjects.
The CTC were analyzed via the CellSearch system (Veridex, Raritan, N.J.). […] Pro-GRP was measured using ARCHITECT ELISA kits (Abbott Diagnostics, Abbott Park, Ill.). Serum samples were analyzed for M30 and M65 (Peviva) using previously described assays validated to good clinical laboratory practice (Cummings J, Ward T H, LaCasse E, et al: Validation of pharmacodynamic assays to evaluate the clinical efficacy of an antisense compound (AEG 35156) targeted to the X-linked inhibitor of apoptosis protein XIAP. Br J Cancer 92:532-8, 2005; and Cummings J, Ranson M, Lacasse E, et al: Method validation and preliminary qualification of pharmacodynamic biomarkers employed to evaluate the clinical efficacy of an antisense compound (AEG35156) targeted to the X-linked inhibitor of apoptosis protein XIAP. […]

M30 = assay: phase 2 study, M30 ELISA assay in patient serum; format: in vivo, human
Protocol: Serum and plasma samples collected at the same intervals were stored at −70° C. or colder until analyzed for quantitative assessment of tumor markers. CYFRA 21-1 and Pro-GRP were measured using the automated [sequence] ELISA kits (Abbott Diagnostics, Abbott Park, Ill.) and NSE was measured in plasma using automated electrochemoluminescent assays on Elecsys 2010 (Roche Diagnostics, Germany). Serum samples were analyzed for M30 and M65 (Peviva AB, Sweden) using previously described assays validated to good clinical laboratory practice (see, Cummings J., et al., Br J Cancer 92:532-8, 2005; and Cummings J., et al., Br J Cancer 95:42-8, 2006).
(§4) Correlations between median BCL2 copy number and pro-GRP were performed by the Pearson correlation; M30 and CTC change from baseline comparisons among Pro-GRP groups were performed by one-way ANOVA using the JMP 8.0 statistical software.
This assay measures the release of caspase-cleaved cytokeratin 18 following apoptotic cell death.

[4] = tested on: circulating tumor cells (CTC); assay: phase 2 study, circulating tumor cell number (CellSearch); format: in vivo, human
Protocol: Blood specimens for analyzing circulating tumor cells (CTC) were collected at screening, on day 14 of cycles 1 and 2, and at final study visit (for US patients only). […] Samples enriched for CTC are removed from the Veridex cartridge after the imaging and enumeration, washed 1× in PBS, pelleted then resuspended in 100 μL PBS and dropped onto a positively charged slide (Biogenex, San Ramon, Calif.) and dried. The slides are then rinsed in H2O prior to imaging using the Carl Zeiss (Germany) or Bioview imaging systems (Tel Aviv, Israel), the CTC are identified and the locations recorded. […] The slides are then returned to the Zeiss or Bioview imaging systems and the previously identified CTC are assessed for DNA copy number.
as §4
To further evaluate this association, we assessed plasma Pro-GRP, and BCL2 copy number by FISH in CTC from patients on this study (n=10).

[5] = phase 2 study, safety / study discontinuation; format: in vivo, human; conditions: phase 2, 39 patients
Protocol: Safety assessments included history and physical examinations, vital signs, ECOG performance status, AEs, blood chemistry and complete blood counts with differential. Safety assessments were performed at screening, weekly during cycle 1, and at the start of subsequent cycles. Adverse event severity was graded according to the National Cancer Institute Common Terminology Criteria for Adverse Events (NCI CTCAE), version 3.0 (Common Terminology Criteria for Adverse Events. Version 3.0. Available at NCI website for the cancer therapy evaluation program (CTEP). Relationships of adverse events to navitoclax (definitely, probably, possibly, unlikely, or unrelated) were assessed by the Principal Investigator at each site.
A total of 39 patients participated in the phase 2 study. The majority of patients were of performance status 1. The median number of prior therapeutic regimens was 2 (range 1-6). All patients were started at the planned dose and schedule, including dose escalation to 325 mg in week 2. The primary reasons for study discontinuation included disease progression (N=26, 67%) and AEs (N=11, 28%). The median number of treatment cycles was 2 (range, 1-11) and the median treatment duration was 1.3 months (range, 0.2-7.3).

[6] = 47 enrolled, 38 evaluable for response

In the case of `CC1(C)CCC(c2ccc(Cl)cc2)=C(CN2CCN(c3ccc(C(=O)NS(=O)(=O)c4ccc(NC(CCN5CCOCC5)CSc5ccccc5)c(S(=O)(=O)C(F)(F)F)c4)cc3)CC2)C1` (stereo in doubt) [navitoclax, N-(4-(4-(2-(4-chlorophenyl)-5,5-dimethyl-1-cyclohex-1-en-1-yl)methyl)pip-erazin-1-yl)benzoyl)-4-(((1R)-3-(morpholin-4-yl)-1-((phenylsulfanyl)methyl)propyl)amino)-3-((trifluoromethyl)sulfonyl)benzenesulfonamide], the “subjects with partial response” value [1, 6] is reported as “One”, the “subjects with stable disease” value [1, 6] is reported as 7 and the “duration of partial response” value ([1]; one subject, remains on study) is reported as “over 26 months”. The “recommended phase 2 dose” value ([2]; from exploration of doses and schedules in phase I) was 325 mg daily, the toxicities / tolerability ([2]; phase I, intermittent and continuous dosing cohorts) was “dose and schedule-dependent thrombocytopenia, diarrhea, nausea, and fatigue; also recorded: safe, well-tolerated, with dose-dependent thrombocytopenia as the major side effect; also recorded: rapid and dose-dependent thrombocytopenia” and the half-life [3] was roughly 15 h. For the same molecule, the Pro-GRP levels overall (pro-GRP) was “declined or stabilized with increasing navitoclax dose”, the M30 concentrations (M30; better prognosis patients, high Pro-GRP group (above 600 pg/mL)) was 205% and the M30 concentrations (M30; better prognosis patients, low Pro-GRP group (below 600 pg/mL)) was 116%. The M30 concentrations (M30; total population, high Pro-GRP group n=19) was 212%, the M30 concentrations (M30; total population, low Pro-GRP n=13) was 109% and the “median CTC number” value ([4]; better prognosis patients, high pro-GRP group, baseline to day 14) was 91 % of baseline. For the same molecule, the “median CTC number” value ([4]; better prognosis patients, low pro-GRP group, baseline to day 14) was 349 % of baseline, the “median CTC number” value ([4]; total population, high pro-GRP group n=12) was 186 % of baseline and the “median CTC number” value ([4]; total population, low pro-GRP group n=8) was 518 % of baseline. For the same molecule, the “study discontinuation due to AEs” value [5] was 28%.
